The results in this text go back to ChEMBL document CHEMBL1777733, “The discovery and structure-activity relationships of pyrano[3,4-b]indole-based inhibitors of hepatitis C virus NS5B polymerase” (Bioorg Med Chem Lett, 2011).

Experiment [1] can be described thus: Inhibition of HCV BK NS5B polymerase after 15 mins. Also noted: species or system Hepatitis C virus (isolate BK).
Experiment [2] is described as follows: Inhibition of HCV BB7 NS5B polymerase after 15 mins. On the set-up: species or system Hepacivirus hominis.
The test system of experiment [3] is Hepatitis C virus. The experiment in a line: Antiviral activity against HCV genotype 1b infected in human Huh7 cells assessed as reduction of viral RNA level after 3 days by RT-PCR method. The experiment is classed as functional, organism-based, Hepacivirus hominis. The following applies: Huh-7, 72 h.
The subject of experiment [4] is Hepatitis C virus. The experiment in a line: Antiviral activity against HCV genotype 1b infected in human Huh7 cells assessed as decrease in viral NS5A levels after 3 days by ELISA. The experiment is classed as functional, organism-based, Hepacivirus hominis. The following applies: Huh-7, 72 h. In general terms: An ELISA detects its analyte on a solid surface through an enzyme-linked reagent.

Consider `CC[C@H](C)[C@]1(CC(=O)O)OCCc2c1[nH]c1c(C)c(OCCn3cccn3)cc(C#N)c21`, for which the IC50 (in general, the concentration that gives 50% inhibition) in experiment [1] was found to be 12 nM; in experiment [2] it was 3 nM. In addition, the EC50 – broadly, the concentration needed to bring the measured effect to its halfway point – with Hepatitis C virus [3] was determined as 20 nM.

For `CCC[C@]1(CC(=O)O)OCCc2c1[nH]c1c(C)c(OCCn3cccn3)cc(C#N)c21`, the IC50 in experiment [1] and in experiment [2] was 5 nM in each case.

For `CCC[C@]1(CC(=O)O)OCCc2c1[nH]c1c(C)c(OCc3cc(C)on3)cc(C#N)c21`, the IC50 in experiment [1] is 6 nM; in experiment [2], 8 nM. Moreover, the EC50 in the experiment on Hepatitis C virus [4] is 480 nM.

As to `CCC[C@]1(CC(=O)O)OCCc2c1[nH]c1c(C)c(OCc3cc(C)n(C)n3)cc(C#N)c21`, the results for the IC50 in experiment [1] and in experiment [2] were 30 nM and 20 nM, respectively. In the experiment with Hepatitis C virus [4], the EC50 is 760 nM.

Take `CCC[C@]1(CC(=O)O)OCCc2c1[nH]c1c(C)c(OC[C@H](C)n3cccn3)cc(C#N)c21`: the half-inhibitory concentration (IC50) in experiment [1] and in experiment [2] was 3 nM each time. Further, the EC50 with Hepatitis C virus [4] was found to be 120 nM.

Regarding `CCC[C@]1(CC(=O)O)OCCc2c1[nH]c1c(C)c(OC[C@@H](C)n3cccn3)cc(C#N)c21`, the half-inhibitory concentration (IC50) in experiment [1] and in experiment [2] was 7 nM each time. Moreover, the half-maximal effective concentration (EC50) in the experiment with Hepatitis C virus [4] is 340 nM.

Turning to `CC[C@H](C)[C@]1(CC(=O)O)OCCc2c1[nH]c1c(C)c(OC[C@H](C)n3cccn3)cc(C#N)c21`, the concentration for half-maximal inhibition (IC50) in experiment [1] and in experiment [2] was 2 nM throughout. Further, the EC50 in the experiment with Hepatitis C virus [3] worked out at 20 nM.

Consider `CCC[C@]1(CC(=O)O)OCCc2c1[nH]c1c(C)ccc(C#N)c21`, for which the half-inhibitory concentration (IC50) came out at 300 nM in experiment [1] and 400 nM in experiment [2].

On to `CCCC1(CC(=O)O)OCCc2c1[nH]c1c(C)c(C(=O)NC)cc(C#N)c21` (racemic), for which the IC50 turned out to be 1300 nM in experiment [1] and 970 nM in experiment [2]. In addition, in the experiment with Hepatitis C virus [4], the half-maximal effective concentration (EC50) was more than 100000 nM.

As to `CCCC1(CC(=O)O)OCCc2c1[nH]c1c(C)c(C(=O)N(C)C)cc(C#N)c21` (racemic), the IC50 in experiment [1] turned out to be 16000 nM; in experiment [2], 20000 nM. Further, in the experiment on Hepatitis C virus [4], the EC50 is more than 100000 nM.

With `CCCNC(=O)c1cc(C#N)c2c3c([nH]c2c1C)C(CCC)(CC(=O)O)OCC3` (racemic), the IC50 in experiment [1] came to 3000 nM; in experiment [2], 2000 nM. The EC50 with Hepatitis C virus [4] was more than 100000 nM.

Take `CCCC1(CC(=O)O)OCCc2c1[nH]c1c(C)c(C(=O)NCc3ccccc3)cc(C#N)c21` (racemic): the IC50 was 980 nM in experiment [1] and 670 nM in experiment [2]. Further, the EC50 with Hepatitis C virus [4] is more than 100000 nM.

As to `CCCC1(CC(=O)O)OCCc2c1[nH]c1c(C)c(C(=O)NCc3ccc4c(c3)OCO4)cc(C#N)c21` (racemic), the half-inhibitory concentration (IC50) in experiment [1] is 540 nM; in experiment [2], 300 nM. In the experiment on Hepatitis C virus [4], the EC50 was 56000 nM.

For the molecule `CCCC1(CC(=O)O)OCCc2c1[nH]c1c(C)c(C(=O)NCCc3ccccn3)cc(C#N)c21` (racemic), the IC50 in experiment [1] was determined as 1200 nM; in experiment [2] it was 640 nM. Moreover, the EC50 with Hepatitis C virus [4] was more than 100000 nM.

With `CCCC1(CC(=O)O)OCCc2c1[nH]c1c(C)c(C(=O)NCCc3ncc[nH]3)cc(C#N)c21` (racemic), the results for the IC50 in experiment [1] and in experiment [2] were 860 nM and 560 nM, respectively. Besides, the EC50 in the experiment with Hepatitis C virus [4] is more than 100000 nM.

Take `CCCC1(CC(=O)O)OCCc2c1[nH]c1c(C)c(O)cc(C#N)c21` (racemic): the IC50 in experiment [1] stood at 260 nM; in experiment [2], 200 nM. The EC50 in the experiment with Hepatitis C virus [4] is 47000 nM.

As to `CCCC1(CC(=O)O)OCCc2c1[nH]c1c(C)c(OC)cc(C#N)c21` (racemic), the IC50 in experiment [1] amounted to 360 nM; in experiment [2], 130 nM. Further, in the experiment on Hepatitis C virus [4], the EC50 turned out to be 20000 nM.

Turning to `CCCC1(CC(=O)O)OCCc2c1[nH]c1c(C)c(OCC)cc(C#N)c21` (racemic), the IC50 in experiment [1] came out at 110 nM; in experiment [2], 70 nM. In addition, in the experiment with Hepatitis C virus [4], the EC50 turned out to be 3500 nM.

Consider `CCCOc1cc(C#N)c2c3c([nH]c2c1C)C(CCC)(CC(=O)O)OCC3` (racemic), for which the IC50 in experiment [1] and in experiment [2] was 70 nM each time. Moreover, the EC50 with Hepatitis C virus [4] is 2900 nM.

Take `CCCC1(CC(=O)O)OCCc2c1[nH]c1c(C)c(OC(C)C)cc(C#N)c21` (racemic): the IC50 in experiment [1] turned out to be 480 nM; in experiment [2], 220 nM. In addition, the EC50 with Hepatitis C virus [4] was 19700 nM.

On to `CCCC1(CC(=O)O)OCCc2c1[nH]c1c(C)c(OCCOC)cc(C#N)c21` (racemic), for which the IC50 was 40 nM in experiment [1] and 90 nM in experiment [2]. Besides, the EC50 in the experiment on Hepatitis C virus [4] worked out at 4900 nM.

For the molecule `CCCC1(CC(=O)O)OCCc2c1[nH]c1c(C)c(OCCN3CCCC3)cc(C#N)c21` (racemic), the figures for the IC50 in experiment [1] and in experiment [2] were 1100 nM and 950 nM, respectively. For the same molecule, in the experiment with Hepatitis C virus [4], the EC50 is 26000 nM.

Take `CCCC1(CC(=O)O)OCCc2c1[nH]c1c(C)c(OCc3ccccn3)cc(C#N)c21` (racemic): the IC50 in experiment [1] and in experiment [2] was 20 nM in each case. The 50% effective concentration (EC50) with Hepatitis C virus [4] came to 390 nM.

Take `CCCC1(CC(=O)O)OCCc2c1[nH]c1c(C)c(OCCc3ccncc3)cc(C#N)c21` (racemic): the IC50 came to 310 nM in experiment [1] and 230 nM in experiment [2]. Besides, in the experiment with Hepatitis C virus [4], the EC50 was found to be 8300 nM.

As for `CCCC1(CC(=O)O)OCCc2c1[nH]c1c(C)c(OCc3cnccn3)cc(C#N)c21` (racemic), the values for the IC50 in experiment [1] and in experiment [2] were 19 nM and 20 nM, respectively. The EC50 with Hepatitis C virus [4] was 1600 nM.
